Laboratory results from patent US10696707B2, “Polyene macrolide derivative” (Shionogi & Co., Ltd., priority 2014, dated 2020).
≈ marks a conversion by molar mass, not a printed value. Where two headings read alike, the source gives them in different places.

Legend:
Assay type in all cases: cell-based
C. albicans ATCC90028 = experiment: Antifungal activity test, MIC by broth microdilution (CLSI M27-A3); conditions: Candida albicans; C. albicans ATCC90028; broth microdilution, 35° C., 24-48 hours, 100% inhibition; read-out: MIC
Method in brief: (§1)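 CLSI broth microdilution in RPMI 1640 with 2% glucose, 0.165 mol/L MOPS, pH 7.0; two-fold DMSO dilutions. MIC = lowest concentration giving 100% inhibition versus growth control.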

A. flavus ATCC204304 = experiment: Antifungal activity test, MIC by broth microdilution (CLSI M38-A2); conditions: Aspergillus flavus; A. flavus ATCC204304; broth microdilution, 35° C., 24-48 hours, 100% inhibition; read-out: MIC
Method in brief: as §1

A. fumigatus ATCC204305 = experiment: as above; conditions: Aspergillus fumigatus; A. fumigatus ATCC204305; broth microdilution, 35° C., 24-48 hours, 100% inhibition; read-out: MIC
Method in brief: as §1

[1] = tested on: red blood cells (5% RBC suspension); experiment: Test Example 2-2: in vitro hemolytic activity test (upper limit 200 μmol/L); conditions: Test Example 2-2, hemolysis method 200 (upper concentration 200 μmol/L), 5% RBC suspension, 37° C., one hour, read-out: hemolysis IC50
Protocol: Nephrotoxic potentials of the compounds of the present invention whose X is —N(R^F)—CO—X^1 and X^1 is the group represented by formula (III) and T is —N(R^a5)— were investigated by in vitro hemolytic activity test under the condition that the upper limit was 200 μmol/L as the required concentration to 50% of hemolysis (IC50).
Defibrinated sterile blood was centrifuged at 700×g for 3 minutes and, and the supernatant was removed for 100% of red blood cells. After the cleaning with physiological saline, the washed blood cells was suspended in the medium (Earle's balanced salt sodium, bicarbonate, 0.1 g/L L-glutamine without phenol red), and was diluted by 5% (5% RBC suspension).
The washed blood was diluted by 5% in water for injection (solution of complete hemolysis), and was used as the indication of optical density for complete hemolysis.
The compounds of the present invention solution in DMSO (several and doubling dilutions starting from 10 mmol/L), DMSO as the negative control, and Amphotericin B as the positive control were used, and each 5 μL of these was added in to a well of V-form 96 well type microplate. Finally, the maximum concentration of the compounds of the present invention solution in DMSO was 200 μmol/L by adding 245 μL of the medium or 5% RBC suspension into the well.
Two hundred fifty μL of the solution of complete hemolysis was added into another well and the microplate was incubated at 37° C. in 5% of CO2 concentration for an hour.
After the incubation, each 100 μL of supernatants in wells was collected by centrifugation of the microplate at 300×g for 5 minutes and was located on a well of flat-form 96 well type microplate. An absorbance of each supernatant was measured at wavelength of 540 nm.
Percent hemolysis was calculated by using the followed equation. The required concentration to 50% of hemolysis (IC50) was calculated based on the percent hemolysis. […] Hemolysis (%)=(CR−VM)×100÷(VL−VR) Where:
CR: Absorbance of 5% RBC suspension incubated with the compounds of the present invention solution in DMSO
VM: Absorbance of medium incubated with the compounds of the present invention solution in DMSO
VL: Absorbance of solution of complete hemolysis
VR: Absorbance of 5% RBC suspension incubated with DMSO
The “>200” in the table means above IC50 value exceeded the upper concentration 200 μmol/L.

| SMILES | IC50 [1] [µM] | other results |
| --- | --- | --- |
| C[C@@H]1[C@H](O)[C@@H](C)/C=C/C=C/C=C/C=C/C=C/C=C/C=C/[C@H](O[C@@H]2O[C@H](C)[C@@H](O)[C@H](N)[C@@H]2O)C[C@@H]2O[C@](O)(C[C@@H](O)C[C@@H](O)[C@H](O)CC[C@@H](O)C[C@@H](O)CC(=O)O[C@H]1C)C[C@H](O)[C@H]2NC(=O)NNC(CO)CO [I-272] | – | MIC (C. albicans ATCC90028): 0.25 µg/mL (≈ 0.243 µM); MIC (A. flavus ATCC204304): 0.5 µg/mL (≈ 0.487 µM); MIC (A. fumigatus ATCC204305): 0.5 µg/mL (≈ 0.487 µM); IC50 ([1]; Erythrocyte, 1 h): > 200 µM |
| C[C@@H]1[C@H](O)[C@@H](C)/C=C/C=C/C=C/C=C/C=C/C=C/C=C/[C@H](O[C@@H]2O[C@H](C)[C@@H](O)[C@H](N)[C@@H]2O)C[C@@H]2O[C@](O)(C[C@@H](O)C[C@@H](O)[C@H](O)CC[C@@H](O)C[C@@H](O)CC(=O)O[C@H]1C)C[C@H](O)[C@H]2NC(=O)NNC(=O)C1(CO)CC1 [I-247] | > 200 | – |
| C[C@@H]1[C@H](O)[C@@H](C)/C=C/C=C/C=C/C=C/C=C/C=C/C=C/[C@H](O[C@@H]2O[C@H](C)[C@@H](O)[C@H](N)[C@@H]2O)C[C@@H]2O[C@](O)(C[C@@H](O)C[C@@H](O)[C@H](O)CC[C@@H](O)C[C@@H](O)CC(=O)O[C@H]1C)C[C@H](O)[C@H]2NC(=O)NNC(=O)c1ncccc1N [I-197] | > 200 | – |
| CNC(=S)NNC(=O)N[C@H]1[C@@H]2C[C@@H](O[C@@H]3O[C@H](C)[C@@H](O)[C@H](N)[C@@H]3O)/C=C/C=C/C=C/C=C/C=C/C=C/C=C/[C@H](C)[C@@H](O)[C@@H](C)[C@H](C)OC(=O)C[C@H](O)C[C@H](O)CC[C@@H](O)[C@H](O)C[C@H](O)C[C@](O)(C[C@@H]1O)O2 [I-215] | > 200 | – |
| C[C@@H]1[C@H](O)[C@@H](C)/C=C/C=C/C=C/C=C/C=C/C=C/C=C/[C@H](O[C@@H]2O[C@H](C)[C@@H](O)[C@H](N)[C@@H]2O)C[C@@H]2O[C@](O)(C[C@@H](O)C[C@@H](O)[C@H](O)CC[C@@H](O)C[C@@H](O)CC(=O)O[C@H]1C)C[C@H](O)[C@H]2NC(=O)NNC(=O)Nc1cccnn1 [I-224] | > 200 | – |
| C[C@@H]1[C@H](O)[C@@H](C)/C=C/C=C/C=C/C=C/C=C/C=C/C=C/[C@H](O[C@@H]2O[C@H](C)[C@@H](O)[C@H](N)[C@@H]2O)C[C@@H]2O[C@](O)(C[C@@H](O)C[C@@H](O)[C@H](O)CC[C@@H](O)C[C@@H](O)CC(=O)O[C@H]1C)C[C@H](O)[C@H]2NC(=O)NNC(=O)C[C@@H](O)C(=O)O [I-253] | > 200 | – |
| C[C@@H]1[C@H](O)[C@@H](C)/C=C/C=C/C=C/C=C/C=C/C=C/C=C/[C@H](O[C@@H]2O[C@H](C)[C@@H](O)[C@H](N)[C@@H]2O)C[C@@H]2O[C@](O)(C[C@@H](O)C[C@@H](O)[C@H](O)CC[C@@H](O)C[C@@H](O)CC(=O)O[C@H]1C)C[C@H](O)[C@H]2NC(=O)NNC(=O)c1ccc(N2CCOCC2)nc1 [I-194] | > 200 | – |
| COC(=O)NNC(=O)N[C@H]1[C@@H]2C[C@@H](O[C@@H]3O[C@H](C)[C@@H](O)[C@H](N)[C@@H]3O)/C=C/C=C/C=C/C=C/C=C/C=C/C=C/[C@H](C)[C@@H](O)[C@@H](C)[C@H](C)OC(=O)C[C@H](O)C[C@H](O)CC[C@@H](O)[C@H](O)C[C@H](O)C[C@](O)(C[C@@H]1O)O2 [I-47] | – | IC50 ([1]; Erythrocyte, 1 h): > 200 µM |
| C[C@@H]1[C@H](O)[C@@H](C)/C=C/C=C/C=C/C=C/C=C/C=C/C=C/[C@H](O[C@@H]2O[C@H](C)[C@@H](O)[C@H](N)[C@@H]2O)C[C@@H]2O[C@](O)(C[C@@H](O)C[C@@H](O)[C@H](O)CC[C@@H](O)C[C@@H](O)CC(=O)O[C@H]1C)C[C@H](O)[C@H]2NC(=O)NNC(=O)[C@H](O)[C@@H](O)[C@H](O)[C@H](O)CO [I-242] | > 200 | – |
| C[C@@H]1[C@H](O)[C@@H](C)/C=C/C=C/C=C/C=C/C=C/C=C/C=C/[C@H](O[C@@H]2O[C@H](C)[C@@H](O)[C@H](N)[C@@H]2O)C[C@@H]2O[C@](O)(C[C@@H](O)C[C@@H](O)[C@H](O)CC[C@@H](O)C[C@@H](O)CC(=O)O[C@H]1C)C[C@H](O)[C@H]2NC(=O)NNC(=S)Nc1ccccc1 [I-216] | > 200 | – |
